These are literature values, as cited in patent US20130028868A1 (priority 2011, published 2013).

Where two headings read alike, the source gives them in different places.

For series [1] the following is noted: in vivo.
The conditions of series [2]: by Cisplatin.
Another series concerns cells. The note with it: in vitro experiments.
For series [3] the following is noted: BDIX rats (50 rats); 3 weeks, 1 mg/kg/week.
Experiment in series [4]: not given
The source holds these as a separate data set.

Experiment in series [5]: not given
The source holds these as a separate data set.

Take `CC(=O)O[C@H]1C(=O)[C@@]2(C)[C@H]([C@H](OC(=O)c3ccccc3)[C@]3(O)C[C@H](OC(=O)[C@H](O)[C@@H](NC(=O)c4ccccc4)c4ccccc4)C(C)=C1C3(C)C)[C@]1(OC(C)=O)CO[C@@H]1C[C@@H]2O` [Paclitaxel]: the “renal clearance of the drug (share)” value (in vivo) was 1-8%. For the same molecule, the protein binding (intravenous paclitaxel) is 89%-98. The “incidence rate of serious neurotoxicity” value in series [1] is listed as 6%. In addition, the “reduction of clearance of the drug” value in series [2] is listed as “about ⅓”. The radiosensitization entry in the series with cells is “significant radiosensitization”.

On to `N.N.[Cl][Pt][Cl]` [Cisplatin], for which the chromosome aberration entry in the series on animal tissue culture was “causing chromosome aberration”. In series [3], the “deaths within 455 days after first time administration” value is recorded as 33, the died from leukemia is on record as 12, the “died from malignant tumor” value is 13 and the “died from renal fibrosarcoma” value was 1. Also, the “excreted along with urine” value in series [4] (96 hours after treatment) is 25%˜45. The “drug in human milk” value in series [4] (reports) is reported as “drug detected in human milk”. Moreover, the marrow inhibition incidence in series [5] (dosage amount≦100 mg/m2) is reported as 10˜20%. Further, the marrow inhibition incidence entry in series [5] (dosage≧120 mg/m2) is “about 40%”.
